The experiment has as its target T1, IKKε (Homo sapiens, UniProt Q14164).
T1 sequence (Q14164 1-716): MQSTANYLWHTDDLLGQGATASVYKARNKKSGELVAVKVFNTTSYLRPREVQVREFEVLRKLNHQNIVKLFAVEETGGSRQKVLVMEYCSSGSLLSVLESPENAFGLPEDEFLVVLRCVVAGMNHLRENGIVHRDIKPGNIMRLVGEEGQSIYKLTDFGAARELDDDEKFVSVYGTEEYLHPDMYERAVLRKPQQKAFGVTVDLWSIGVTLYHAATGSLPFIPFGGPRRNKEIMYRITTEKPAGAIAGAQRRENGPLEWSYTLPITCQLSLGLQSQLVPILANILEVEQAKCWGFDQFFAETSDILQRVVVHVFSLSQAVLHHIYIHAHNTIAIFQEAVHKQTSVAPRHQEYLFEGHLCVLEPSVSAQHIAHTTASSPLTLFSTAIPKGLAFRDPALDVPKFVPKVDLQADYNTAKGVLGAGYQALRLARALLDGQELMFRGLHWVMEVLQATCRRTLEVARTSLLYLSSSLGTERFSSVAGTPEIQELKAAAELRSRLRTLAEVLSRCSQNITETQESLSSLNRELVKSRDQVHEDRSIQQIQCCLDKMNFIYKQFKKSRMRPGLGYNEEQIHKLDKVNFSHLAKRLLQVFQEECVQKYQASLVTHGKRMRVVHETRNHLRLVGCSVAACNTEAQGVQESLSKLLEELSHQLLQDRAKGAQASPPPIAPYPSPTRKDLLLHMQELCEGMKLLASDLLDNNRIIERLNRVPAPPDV
In kind it is biochemical.

As to `N#CCNC(=O)c1ccc(-c2ccnc(Nc3ccc(N4CCOCC4)cc3)n2)cc1` [CYT387], 42 nM corresponded to half-maximal inhibition (IC50).
